Data from PubChem BioAssay AID1996.
Converted amounts (≈) assume the structure as drawn.

Conditions: buffer; pH 7.4; 200.0 µM

| SMILES | solubility kinetic [mg/mL] |
| --- | --- |
| O=C(Nc1ccc2c(c1)CCC2)Nc1ccccc1F | 0.0016 (≈ 5.92 µM) |
| COc1ccccc1Nc1nc(N)nc(CCl)n1 | 0.0354 (≈ 133 µM) |
| Cn1cc(SCC(=O)NC2CCCCC2)c2ccccc21 | 0.0095 (≈ 31.4 µM) |
| O=C(Nc1ccccc1Cl)c1ccccc1 | 0.0192 (≈ 82.9 µM) |
| CCNC(=O)c1ccccc1CCc1ccccc1 | 0.0327 (≈ 129 µM) |
| O=C(CN1CCN(c2ccccn2)CC1)Nc1ccccc1F | 0.0423 (≈ 135 µM) |
| O=C(CSc1nncc2ccccc12)Nc1ccccc1 | > 0.0443 |
| CCOC(=O)c1c(NC(=S)Nc2cccnc2)sc(C)c1C | 0.0201 (≈ 59.9 µM) |
| Cc1[nH]c2c(Cl)cccc2c(=O)c1CN1CCCCCC1 | > 0.0457 |
| NS(=O)(=O)c1ccc(CNc2ncnc3sccc23)cc1 | > 0.0481 |
| COc1cccc(NC(=O)CN(C)C(=O)c2cc(C)on2)c1 | > 0.0455 |
| CN[C@@H]1CC[C@H](c2ccc(Cl)c(Cl)c2)c2ccccc21 | 0.0288 (≈ 94 µM) |
| C=C(C)C(=O)Oc1ccc(N2C(=O)[C@@H]3C4C=CC(C4)[C@@H]3C2=O)cc1 | 0.0101 (≈ 31.2 µM) |
| Cc1ccc(S(=O)(=O)N2CCN(c3ncnc4scc(-c5ccccc5)c34)CC2)cc1 | 0.0009 (≈ 2 µM) |
| O=C(COC(=O)c1cc2ccccc2cc1O)NC1CCCCC1 | 0.0059 (≈ 18 µM) |
| COc1ccc(CC(C)Nc2cccc(SC)c2)cc1 (configuration not stated) | 0.0016 (≈ 5.57 µM) |
| Cc1cc(C=C2C(=O)NC(=O)NC2=O)c(C)n1-c1ccncc1 | > 0.0465 |
| O=C(COC(=O)COc1ccc(Cl)cc1)NCCCc1ccccc1 | 0.0261 (≈ 72.1 µM) |
| COc1ccc(CCNC(=O)C2(c3ccccc3)CC2)cc1 | 0.0438 (≈ 148 µM) |
| O=C(COC(=O)c1cccs1)NCCCc1ccccc1 | 0.0201 (≈ 66.3 µM) |
| O=C1OCc2ccc(NS(=O)(=O)c3ccc(C(F)(F)F)cc3)cc21 | > 0.0536 |
| COc1cccc(NC(=O)COC(=O)c2c(C)noc2C)c1 | > 0.0456 |
| COc1ccc2oc(C(=O)OCC(=O)N3CC(C)OC(C)C3)c(C)c2c1 (configuration not stated) | 0.0516 (≈ 143 µM) |
| CCOC(=O)/C(C#N)=C/Nc1ccsc1C(C)=O | 0.0035 (≈ 13.2 µM) |

| SMILES | solubility kinetic [mg/mL] |
| --- | --- |
| CCOc1ccc(Br)cc1S(=O)(=O)N1CCSC1 | 0.0072 (≈ 20.4 µM) |
| C=CCn1c(SCC(=O)NCC2CCCO2)nc2sc(CC)cc2c1=O (configuration not stated) | > 0.059 |
| CCc1cc(=O)oc2cc(C)cc(OCC(=O)NC3CC3)c12 | 0.025 (≈ 83 µM) |
| CCCN(C(=O)/C=C/c1ccc(S(=O)(=O)N(CC)CC)cc1)C1CCS(=O)(=O)C1 (configuration not stated) | > 0.0664 |
| Cc1oc(-c2ccccc2)cc1C(=O)NCc1ccncc1 | 0.0367 (≈ 126 µM) |
| N#Cc1nccnc1N1CCN(C(=O)Nc2ccccc2)CC1 | > 0.0463 |
| O=C1CN(c2nc3nonc3nc2N2CCCCC2)CCN1 | 0.0452 (≈ 149 µM) |
| C[C@H](NC(=O)c1ccc(C(C)(C)C)cc1)C(=O)N1CCN(C/C=C/c2ccccc2)CC1 | 0.0216 (≈ 49.8 µM) |
| Cc1ccc(NCC(=O)N/N=C/c2ccncc2)cc1 | > 0.0402 |
| COc1cccc(NC(=O)N2CCc3ccccc3C2)c1 | > 0.0424 |
| CCOC(=O)NN1C(=O)c2ccccc2NC1c1ccccn1 (configuration not stated) | > 0.0468 |
| Cc1ccc(NC(=O)C2Cc3ccccc3C(=O)O2)cc1 (configuration not stated) | 0.0047 (≈ 16.7 µM) |
| COc1ccc(NC(=O)[C@@H]2CCCN2S(=O)(=O)c2ccccc2F)cc1S(=O)(=O)N1CCCCC1 | 0.0371 (≈ 70.6 µM) |
| CCOC(=O)c1c(SC)[nH]c2c(Cl)cccc2c1=O | 0.0014 (≈ 4.7 µM) |
| CCc1ccc(Nc2ccc3nonc3c2[N+](=O)[O-])cc1 | < 0.0002 |
| Cn1c(=O)n(C)c2cc(NC(=O)Cc3ccccc3[N+](=O)[O-])ccc21 | 0.0476 (≈ 140 µM) |
| Cc1cc(C(=O)OCC(=O)Nc2cccc(S(N)(=O)=O)c2)c(C)o1 | > 0.0529 |
| Cc1sc2ncn(-c3ccccc3)c(=O)c2c1C | 0.0056 (≈ 21.8 µM) |
| Nc1ccc(S(=O)(=O)[O-])c[nH+]1 | > 0.0261 |
| Cc1ccccc1C(=O)NCC(C)NC(=O)c1ccccc1C (configuration not stated) | 0.0424 (≈ 137 µM) |
| CN1CC(C(=O)c2cccs2)C(c2ccc(Cl)cc2)C1 (configuration not stated) | > 0.0459 |
| COc1ccccc1NC(=O)c1ccc2c(=O)n3c(nc2c1)CCC3 | 0.0132 (≈ 39.4 µM) |
| CCCNC(=S)Nc1cc2oc3ccccc3c2cc1OC | 0.0004 (≈ 1.27 µM) |
